{"source": "paper PMC2423925", "about": "“Pharmacokinetics of Octreotide in Patients With Cirrhosis and Portal Hypertension; Relationship Between the Plasma Levels of the Analogue and the Magnitude and Duration of the Reduction in Corrected Wedged Hepatic Venous Pressure” (HPB Surgery, 1998)", "key": {"[1]": {"assay": "Plasma octreotide level one hour after intravenous administration (radioimmunoassay)", "format": "in vivo, human", "details": "50 μg octreotide IV bolus, 13 patients with cirrhosis and portal hypertension", "from_the_text": "Furthermore, we also studied the relationship between the mag- nitude and duration of response of octreotide on corrected wedged hepatic venous pressure (WHVP) and the circulatinglevels ofthe analogue after intravenous administration. Subcutaneous Administration of Octreotide Six patients (4 males and 2 females), receiving 50tg octreotide s.c. twice daily to prevent recurrent varieceal hemorrhage were studied 4 weeks after commencing treatment with the analogue. These patients were participating in a randomised controlled trial and had already undergone a baseline measurement of corrected wedged hepatic venous pressure (WHVP) prior to being commenced on octreotide (50 tg.sc.bd). […] One patient had severe (Child's C), 2 moderate (Child's B) and 3 mild (Child's A) liver dys- function. Following an overnight fast, blood samples were removed immediately prior to a subcutaneous injection of 50tg octreotide and then at 2 hourly intervals for the following 12 h. The blood samples were collected in hepari- nised bottles containing Trasylol, centrifuged at 0C, the plasma snap frozen and stored at -20C for subsequent analysis of the octreo- tide levels. […] Thirteen patient with cirrhosis and portal hy- pertension admitted for a thorough investigation of the etiology and severity of their liver disease underwent measurements of their corrected wedged hepatic venous pressure (WHVP). […]"}, "[2]": {"details": "normal healthy volunteers; cited from earlier work"}, "[3]": {"assay": "Pharmacokinetics of octreotide after subcutaneous injection (plasma radioimmunoassay);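 for all read-outs here: cirrhotic patients on twice-daily subcutaneous dosing for prevention of recurrent variceal bleeding, sampled four weeks into treatment, octreotide measured in plasma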", "details": "for AUC: AUC 2-12 h; for Cmax: 50 μg, Plasma octreotide levels, Peak", "from_the_text": "Furthermore, we also studied the relationship between the mag- nitude and duration of response of octreotide on corrected wedged hepatic venous pressure (WHVP) and the circulatinglevels ofthe analogue after intravenous administration. Subcutaneous Administration of Octreotide Six patients (4 males and 2 females), receiving 50tg octreotide s.c. twice daily to prevent recurrent varieceal hemorrhage were studied 4 weeks after commencing treatment with the analogue. These patients were participating in a randomised controlled trial and had already undergone a baseline measurement of corrected wedged hepatic venous pressure (WHVP) prior to being commenced on octreotide (50 tg.sc.bd). […] One patient had severe (Child's C), 2 moderate (Child's B) and 3 mild (Child's A) liver dys- function. Following an overnight fast, blood samples were removed immediately prior to a subcutaneous injection of 50tg octreotide and then at 2 hourly intervals for the following 12 h. The blood samples were collected in hepari- nised bottles containing Trasylol, centrifuged at 0C, the plasma snap frozen and stored at -20C for subsequent analysis of the octreo- tide levels. […] Thirteen patient with cirrhosis and portal hy- pertension admitted for a thorough investigation of the etiology and severity of their liver disease underwent measurements of their corrected wedged hepatic venous pressure (WHVP). […] A 7F occlusion ballon Sidewinder catheter (Cordis Corporation, Miami, USA) was guided into a hepatic vein under fluoroscopic control. […] The right femoral artery was cannu- lated with a 7F Cordis cannula via a 8F Cordis introducer."}, "[4]": {"details": "Patient 1, Child's grade A, 50 μg s.c."}, "[5]": {"details": "Patient 2, Child's grade A, 50 μg s.c."}, "[6]": {"details": "Patient 3, Child's grade A, 50 μg s.c."}, "[7]": {"details": "Patient 4, Child's grade B, 50 μg s.c."}, "[8]": {"details": "Patient 5, Child's grade B, 50 μg s.c."}, "[9]": {"details": "Patient 6, Child's grade C, 50 μg s.c."}}}
{"smiles": "C[C@@H](O)[C@@H]1NC(=O)[C@H](CCCCN)NC(=O)[C@@H](Cc2c[nH]c3ccccc23)NC(=O)[C@H](Cc2ccccc2)NC(=O)[C@@H](NC(=O)[C@H](N)Cc2ccccc2)CSSC[C@@H](C(=O)N[C@H](CO)[C@@H](C)O)NC1=O", "note": "[octreotide]", "values": [{"measurement": "plasma octreotide level 1 h after administration", "setting": "[1]", "result": 1944, "unit": "pg/mL"}, {"measurement": "level at 1 h", "setting": "[1]; human, plasma, 50 ug", "result": "1.94 ± 0.226", "unit": "ng/mL"}, {"measurement": "hepatic excretion", "setting": "[2]", "result": "30-40%"}, {"measurement": "clearance, overall", "setting": "[3]; 50 μg s.c., six patients, mean ± SD", "result": 3.04, "unit": "L/h"}, {"measurement": "Clearance", "setting": "[3]; [4]", "result": 4.775, "unit": "L/h"}, {"measurement": "K", "setting": "[3]; [4]", "result": 0.271, "unit": "h⁻¹"}, {"measurement": "Volume of distribution", "setting": "[3]; [4]", "result": 17.62, "unit": "L"}, {"measurement": "Clearance", "setting": "[3]; [5]", "result": 2.892, "unit": "L/h"}, {"measurement": "K", "setting": "[3]; [5]", "result": 0.251, "unit": "h⁻¹"}, {"measurement": "Volume of distribution", "setting": "[3]; [5]", "result": 11.51, "unit": "L"}, {"measurement": "Clearance", "setting": "[3]; [6]", "result": 3.021, "unit": "L/h"}, {"measurement": "K", "setting": "[3]; [6]", "result": 0.288, "unit": "h⁻¹"}, {"measurement": "Volume of distribution", "setting": "[3]; [6]", "result": 10.47, "unit": "L"}, {"measurement": "Clearance", "setting": "[3]; [7]", "result": 2.765, "unit": "L/h"}, {"measurement": "K", "setting": "[3]; [7]", "result": 0.172, "unit": "h⁻¹"}, {"measurement": "Volume of distribution", "setting": "[3]; [7]", "result": 16.07, "unit": "L"}, {"measurement": "Clearance", "setting": "[3]; [8]", "result": 2.704, "unit": "L/h"}, {"measurement": "K", "setting": "[3]; [8]", "result": 0.172, "unit": "h⁻¹"}, {"measurement": "Volume of distribution", "setting": "[3]; [8]", "result": 15.77, "unit": "L"}, {"measurement": "Clearance", "setting": "[3]; [9]", "result": 2.101, "unit": "L/h"}, {"measurement": "K", "setting": "[3]; [9]", "result": 0.142, "unit": "h⁻¹"}, {"measurement": "Volume of distribution", "setting": "[3]; [9]", "result": 14.82, "unit": "L"}, {"measurement": "Tmax", "setting": "[3]; both, human, plasma, sc, 50 ug", "result": 2, "unit": "h"}, {"measurement": "half-life", "setting": "[3]; both, human, plasma, sc, 50 ug, circulating (plasma) half life, range, 50 μg octreotide s.c., range over 6 patients with cirrhosis and portal hypertension", "result": "2.4 to 4.79", "unit": "h"}, {"measurement": "half-life", "setting": "[3]; both, human, plasma, sc, 50 ug, plasma half-life, overall, 50 μg s.c., six patients, mean ± SD", "result": 3.44, "unit": "h"}, {"measurement": "AUC", "setting": "[3]; human, plasma, sc, 50 ug, Patient 1, Child's grade A, 50 μg s.c.", "result": 0.0105, "unit": "µg·h/mL"}, {"measurement": "AUC", "setting": "[3]; human, plasma, sc, 50 ug, Patient 2, Child's grade A, 50 μg s.c.", "result": 0.0172, "unit": "µg·h/mL"}, {"measurement": "AUC", "setting": "[3]; human, plasma, sc, 50 ug, Patient 3, Child's grade A, 50 μg s.c.", "result": 0.0166, "unit": "µg·h/mL"}, {"measurement": "AUC", "setting": "[3]; human, plasma, sc, 50 ug, Patient 4, Child's grade B, 50 μg s.c.", "result": 0.0181, "unit": "µg·h/mL"}, {"measurement": "AUC", "setting": "[3]; human, plasma, sc, 50 ug, Patient 5, Child's grade B, 50 μg s.c.", "result": 0.0185, "unit": "µg·h/mL"}, {"measurement": "AUC", "setting": "[3]; human, plasma, sc, 50 ug, Patient 6, Child's grade C, 50 μg s.c.", "result": 0.0238, "unit": "µg·h/mL"}, {"measurement": "Cmax", "setting": "[3]; human, plasma, sc, Patient 1, Child's grade A, 50 μg s.c.", "result": 2.59, "unit": "ng/mL"}, {"measurement": "Cmax", "setting": "[3]; human, plasma, sc, Patient 2, Child's grade A, 50 μg s.c.", "result": 2.2, "unit": "ng/mL"}, {"measurement": "Cmax", "setting": "[3]; human, plasma, sc, Patient 3, Child's grade A, 50 μg s.c.", "result": 2.09, "unit": "ng/mL"}, {"measurement": "Cmax", "setting": "[3]; human, plasma, sc, Patient 4, Child's grade B, 50 μg s.c.", "result": 2.94, "unit": "ng/mL"}, {"measurement": "Cmax", "setting": "[3]; human, plasma, sc, Patient 5, Child's grade B, 50 μg s.c.", "result": 3.28, "unit": "ng/mL"}, {"measurement": "Cmax", "setting": "[3]; human, plasma, sc, Patient 6, Child's grade C, 50 μg s.c.", "result": 3.51, "unit": "ng/mL"}, {"measurement": "half-life", "setting": "[3]; human, plasma, sc, 50 ug, t1/2, Patient 1, Child's grade A, 50 μg s.c.", "result": 2.4, "unit": "h"}, {"measurement": "half-life", "setting": "[3]; human, plasma, sc, 50 ug, t1/2, Patient 2, Child's grade A, 50 μg s.c.", "result": 2.76, "unit": "h"}, {"measurement": "half-life", "setting": "[3]; human, plasma, sc, 50 ug, t1/2, Patient 3, Child's grade A, 50 μg s.c.", "result": 2.56, "unit": "h"}, {"measurement": "half-life", "setting": "[3]; human, plasma, sc, 50 ug, t1/2, Patient 4, Child's grade B, 50 μg s.c.", "result": 4.03, "unit": "h"}, {"measurement": "half-life", "setting": "[3]; human, plasma, sc, 50 ug, t1/2, Patient 5, Child's grade B, 50 μg s.c.", "result": 4.04, "unit": "h"}, {"measurement": "half-life", "setting": "[3]; human, plasma, sc, 50 ug, t1/2, Patient 6, Child's grade C, 50 μg s.c.", "result": 4.89, "unit": "h"}]}
